Laboratory results: article PMC6337631, “Effective Tetradentate Compound Complexes against Leishmania spp. that Act on Critical Enzymatic Pathways of These Parasites” (Molecules, 2018)

How the values were obtained:
[1] = system: Leishmania infantum promastigote forms; test: Promastigote test (extracellular forms), L. infantum; type: cell-based; details: Leishmania infantum; 72 h; 100 µM to 1 µM; mean ± SD of four determinations
Experimental: (§1) Promastigote forms of three different Leishmania spp., L. donovani (MHOM/PE/84/LC26), L. infantum (MCAN/ES/2001/UCM-10) and L. braziliensis (MHOM/BR/1975/M2904), were cultured in vitro in Medium Trypanosomes Liquid (MTL) supplemented with 10% inactivated foetal calf serum (FCS) in an air atmosphere at 28 °C, in Roux flasks (Corning, Manassas, VA, USA) with a surface area of 75 cm^2, according to [33].
(§2) The compounds and the reference drug Glu were dissolved in DMSO (Panreac, Barcelona, Spain) and tested from 100 µM to 1 µM with 0.1% (v/v) DMSO final concentration in plates. Therefore, controls were prepared including 0.1% (v/v) of this component, as previously described.
(§3) Promastigote forms were collected in the exponential growth phase and seeded at 1 × 10^5 parasites/mL in 24-well microplates (Nunc, Naperville, IL, USA), after adding each compound at concentrations from 100 µM to 1 µM and cultured in 500 μL/well volumes at 28 °C. After 72 h incubation, the leishmanicidal activity was assessed using a Neubauer haemocytometric chamber in comparison with the control cultures. […] Each drug concentration was tested in triplicate in four separate determinations.

[2] = system: Leishmania infantum amastigote forms; test: Amastigote test (intracellular forms in J774.2 macrophages), L. infantum; type: cell-based; details: Leishmania infantum, 72 h, mean ± SD
Experimental: as §1, §2
(§4) J774.2 macrophages were grown and seeded at a density of 1 × 10^4 cells/well in 24-well microplates (Nunc) with rounded coverslips on the bottom and cultured for 48 h in humidified 95% air, 5% CO2 atmosphere at 37 °C in Minimal Essential Medium (MEM) with 2 mM glutamine and 20% (v/v) inactivated FCS. Adherent macrophages were infected with metacyclic promastigotes in the stationary growth phase of L. donovani, L. infantum and L. braziliensis at a multiplicity of infection (MOI) ratio of 1:10 and maintained for 24 h. Non-phagocytosed parasites were removed by washing, and after addition of the testing compounds at concentrations from 100 µM to 1 µM, cultured in 500 μL/well volumes. Control cultures were also included. After 72 h incubation, leishmanicidal activity was assessed based on the number of amastigotes in treated and untreated cultures in methanol-fixed and Giemsa-stained preparations by analyzing 500 host cells distributed in randomly chosen microscopic fields. The leishmanicidal effect was calculated as described to determine the leishmanicidal activity in the promastigote forms. Each drug concentration was tested in triplicate in four separate determinations.

[3] = system: Leishmania braziliensis amastigote forms; test: Amastigote test (intracellular forms in J774.2 macrophages), L. braziliensis; type: cell-based; details: Leishmania braziliensis, 72 h, mean ± SD
Experimental: as §1, §2, §4

[4] = system: Leishmania donovani promastigote forms; test: Promastigote test (extracellular forms), L. donovani; type: cell-based; details: Leishmania donovani; 72 h; 100 µM to 1 µM; mean ± SD
Experimental: as §1, §2, §3

[5] = system: Leishmania donovani amastigote forms; test: Amastigote test (intracellular forms in J774.2 macrophages), L. donovani; type: cell-based; details: Leishmania donovani, 72 h, mean ± SD
Experimental: as §1, §2, §4

[6] = system: J774.2 murine macrophages; test: Cytotoxicity test on macrophages by flow cytometry; type: cell-based, mouse; details: Mus musculus, J774.2 macrophages, 72 h, read-out: Toxicity IC50 Macrophage
Experimental: as §2
The macrophage line J774.2 [European collection of cell cultures (ECACC) number 91051511] was derived in 1968 from a tumour in a female BALB/c mouse. Macrophages were grown in humidified 95% air, 5% CO2 atmosphere at 37 °C in Minimal Essential Medium (MEM) with 2 mM glutamine and 20% (v/v) inactivated FCS. The cytotoxicity test on macrophages was performed by Flow cytometry analysis according to a method previously described. Briefly, cells were seeded at a density of 5 × 10^4 cells/well in 24-well microplates (Nunc, Naperville, IL, USA). After 48 h incubation, the medium was removed, and fresh medium was added together with each test compound at concentrations from 100 µM to 1 µM and cultured in 500 μL/well volumes for 72 h. Thereafter, cells were recovered by centrifugation, and cell viability was determined by Flow cytometry (FACS Vantage flow cytometer, Becton Dickinson, San Jose, CA, USA) after incubating the cells with propidium iodide ([…]) and fluorescein diacetate (100 ng/mL). The percentage of viability was calculated in comparison with the control cultures. […] Each drug concentration was tested in triplicate in four separate determinations.

[7] = system: Leishmania donovani infection of J774.2 macrophages; test: Infectivity assay, L. donovani; type: cell-based; details: IC25 concentration
Experimental: After the initial in vitro studies we were interested in finding out if the six most leishmanicidal compounds could also prevent the infection of host cells. For this reason, we conducted an assay in which the J774.2 macrophages were exposed to the metacyclic promastigotes and the compound at IC25 concentration at the same time. The propagation of the parasitic infection was determined by measuring the infection rate and the average number of amastigotes per macrophage cell present during the 10-day treatment period. In addition, the endocytic (short-time of infection) and infection (long-time of infection) indexes were calculated.
Adherent macrophages were grown, seeded and infected with metacyclic promastigotes as mentioned above. The compounds at IC25 concentrations (calculated using linear regression analysis from the Kc values of the concentrations employed) were added immediately after infection and incubation was performed for 12 h at 37 °C in humidified 95% air, 5% CO2 atmosphere. in humidified 95% air, 5% CO2 atmosphere at 37 °C Non-phagocytosed parasites and drugs were removed by washing, and then the infected cultures were grown for 10 days, adding fresh culture medium every 48 h, according to [35]. Amastigotes per macrophage count was determined in methanol-fixed and Giemsa-stained preparations as mentioned above every 48 h. The infection rate (defined as the percentage of infected cells), the average number of amastigotes per macrophage, and the endocytic and infection indexes (calculated by multiplying the infection rate by the average number of amastigotes per macrophage) were determined. Each drug concentration was tested in triplicate in four separate determinations.

[8] = system: L. braziliensis promastigotes; test: Ultrastructural alterations by TEM, L. braziliensis; type: cell-based, Leishmania braziliensis; details: 72 h at IC25 concentration
Experimental: (§5) Parasites were cultured at a density of 5 × 10^5 cells/mL with medium containing the tested compounds at IC25 concentrations. After 72 h at 28 °C, the cultures were processed using a technique previously described and analysed by TEM (LIBRA 120 PLUS, Zeiss, Barcelona, Spain).

[9] = system: L. donovani promastigotes; test: Ultrastructural alterations by TEM, L. donovani; type: cell-based, Leishmania donovani; details: 72 h at IC25 concentration
Experimental: as §5

[10] = system: L. infantum promastigotes; test: Ultrastructural alterations by TEM, L. infantum; type: cell-based, Leishmania infantum; details: 72 h at IC25 concentration
Experimental: as §5

[11] = last day of the experiment (day 10)

CN(C)c1ccnc(CN2CCC[C@H]2[C@@H]2CCCN2Cc2cc(N(C)C)ccn2)c1 [Compound 7]
IC50 [1]: 12.3 ± 2.2 µM | IC50 [2]: 9 ± 0.4 µM | IC50 [3]: 8.5 ± 0.3 µM | IC50 [4]: 8.1 ± 3.9 µM | IC50 [5]: 1.1 ± 0.2 µM | IC50 [6]: 172 ± 11.3 µM | day at which the decline in the infection rate appeared, L. donovani ([7]; 10-day infectivity assay): 2 days | percentage of decrease in infection rate in comparison to the control, L. donovani [7, 11]: 88% | percentage of decrease in number of amastigotes per macrophage cell in comparison to the control, L. donovani [7, 11]: 74% | ultrastructural alterations of L. braziliensis promastigotes (TEM) [8]: damaged, swollen, and full of vacuoles | ultrastructural alterations of L. donovani promastigotes (TEM) [9]: cytoplasmic emptiness, none or a few ribosomes, swollen and disintegrated mitochondria and abundant lipid and non-lipid vacuoles | ultrastructural alterations of L. infantum promastigotes (TEM) [10]: most destructive compounds
